Source: patent US20140345648A1, “Oral Healthcare, Products and Methods Therefor” (OZOSPA HOLDINGS LIMITED, priority 2011, published 2014)

Legend:
[1] = system: Porphyromonas gingivalis ATCC 3327; test: Challenge test of powder product, liquid product, xylitol and bicarbonate of soda (based on B.S.3286:1960), Example 4; type: cell-based; conditions: for Porphyromonas gingivalis ATCC 3327 Population Levels T = 0 / Porphyromonas gingivalis ATCC 3327 Population Levels T = 2 / Porphyromonas gingivalis ATCC 3327 Population Levels T = 1 / Porphyromonas gingivalis ATCC 3327 Population Levels T = 4 / Porphyromonas gingivalis ATCC 3327 Population Levels T = 3 / Porphyromonas gingivalis ATCC 3327 Population Levels T = 6 / Porphyromonas gingivalis ATCC 3327 Population Levels T = 5 / Porphyromonas gingivalis ATCC 3327 Population Levels T = 8 / Porphyromonas gingivalis ATCC 3327 Population Levels T = 7: Table 7; for Porphyromonas gingivalis ATCC 3327 Population Levels T = 0: Day 0, powders 1:5, liquid neat; for Porphyromonas gingivalis ATCC 3327 Population Levels T = 2: Day 1, 2 hrs after 10 mls of fresh sol'n added; for Porphyromonas gingivalis ATCC 3327 Population Levels T = 1: Day 1, prior to 10 mls of fresh sol'n added; for Porphyromonas gingivalis ATCC 3327 Population Levels T = 4: Day 2, 2 hrs after 10 mls of fresh sol'n added; for Porphyromonas gingivalis ATCC 3327 Population Levels T = 3: Day 2, prior to 10 mls of fresh sol'n added; for Porphyromonas gingivalis ATCC 3327 Population Levels T = 6: Day 3, 2 hrs after 10 mls of fresh sol'n added; for Porphyromonas gingivalis ATCC 3327 Population Levels T = 5: Day 3, prior to 10 mls of fresh sol'n added; for Porphyromonas gingivalis ATCC 3327 Population Levels T = 8: Day 4, 2 hrs after 10 mls of fresh sol'n added; for Porphyromonas gingivalis ATCC 3327 Population Levels T = 7: Day 4, prior to 10 mls of fresh sol'n added; for effect against the Porphyromonas gingivalis population (in words): controlled laboratory test
Method: (§1) The powder product and the liquid product were challenge tested against the organisms Streptococcus mutans and Porphyromonas gingivalis. […] The challenge method used was based on B.S.3286: 1960 “Method for Laboratory Evaluation of Disinfectant Activity of Quaternary Ammonium Compounds by Suspension Test Procedure”. This standard describes a test procedure for the laboratory evaluation of the activity of disinfectants, in which a suspension of viable microorganisms is added to solutions containing a pre-determined concentration of the disinfectant and the numbers of organisms surviving after a period of time is determined. A 1:5 solution of the powders with sterile deionised water was used for the challenge testing. The liquid product was used neat. The following organisms were used for the challenge testing: […] A modification will be made to the method by the addition of 10 ml of each solution each day, for 4 days. (The blank solution would have 10 ml of Neutralising buffer added.) […]

[2] = system: Streptococcus mutans ATCC 25175; test: as above; type: cell-based; conditions: for Streptococcus mutans ATCC 25175 Population Levels T = 0: Day 0, powders 1:5, liquid neat; for Streptococcus mutans ATCC 25175 Population Levels T = 2: Day 1, 2 hrs after 10 mls of fresh sol'n added; for Streptococcus mutans ATCC 25175 Population Levels T = 1: Day 1, prior to 10 mls of fresh sol'n added; for Streptococcus mutans ATCC 25175 Population Levels T = 4: Day 2, 2 hrs after 10 mls of fresh sol'n added; for Streptococcus mutans ATCC 25175 Population Levels T = 3: Day 2, prior to 10 mls of fresh sol'n added; for Streptococcus mutans ATCC 25175 Population Levels T = 6: Day 3, 2 hrs after 10 mls of fresh sol'n added; for Streptococcus mutans ATCC 25175 Population Levels T = 5: Day 3, prior to 10 mls of fresh sol'n added; for Streptococcus mutans ATCC 25175 Population Levels T = 8: Day 4, 2 hrs after 10 mls of fresh sol'n added; for Streptococcus mutans ATCC 25175 Population Levels T = 7: Day 4, prior to 10 mls of fresh sol'n added
Method: as §1

Row | Structure (SMILES) | Porphyromonas gingivalis ATCC 3327 Population Levels T = 0 [1] | Porphyromonas gingivalis ATCC 3327 Population Levels T = 2 [1] | Porphyromonas gingivalis ATCC 3327 Population Levels T = 1 [1] | Porphyromonas gingivalis ATCC 3327 Population Levels T = 4 [1] | Porphyromonas gingivalis ATCC 3327 Population Levels T = 3 [1] | Porphyromonas gingivalis ATCC 3327 Population Levels T = 6 [1] | Porphyromonas gingivalis ATCC 3327 Population Levels T = 5 [1] | Porphyromonas gingivalis ATCC 3327 Population Levels T = 8 [1] | Porphyromonas gingivalis ATCC 3327 Population Levels T = 7 [1] | effect against the Porphyromonas gingivalis population (in words) [1] | Streptococcus mutans ATCC 25175 Population Levels T = 0 [2] | Streptococcus mutans ATCC 25175 Population Levels T = 2 [2] | Streptococcus mutans ATCC 25175 Population Levels T = 1 [2] | Streptococcus mutans ATCC 25175 Population Levels T = 4 [2] | Streptococcus mutans ATCC 25175 Population Levels T = 3 [2] | Streptococcus mutans ATCC 25175 Population Levels T = 6 [2] | Streptococcus mutans ATCC 25175 Population Levels T = 5 [2] | Streptococcus mutans ATCC 25175 Population Levels T = 8 [2] [cfu/ml] | Streptococcus mutans ATCC 25175 Population Levels T = 7 [2] | reduction in the Streptococcus mutans population ([2]; over the 5 days, Example 4) [log]
1 | O=C([O-])O.[Na+] [Bicarbonate of Soda solution, Sodium Bicarbonate] | 2.5 × 10^6 cfu/ml | 3.1 × 10^5 cfu/ml | 5.9 × 10^5 cfu/ml | 1.1 × 10^5 cfu/ml | 1.2 × 10^5 cfu/ml | 3.3 × 10^4 cfu/ml | 2.4 × 10^4 cfu/ml | 2.8 × 10^3 cfu/ml | 4.8 × 10^3 cfu/ml | did not appear to be effective on its own | 1.5 × 10^7 cfu/ml | 3.4 × 10^5 cfu/ml | 1.8 × 10^6 cfu/ml | 3.2 × 10^4 cfu/ml | 6.7 × 10^4 cfu/ml | 2.8 × 10^3 cfu/ml | 7.7 × 10^3 cfu/ml | 10 | 1.2 × 10^2 cfu/ml | 6
2 | OC[C@@H](O)[C@H](O)[C@@H](O)CO [Xylitol solution, Xylitol] | 2.6 × 10^6 cfu/ml | 1.9 × 10^3 cfu/ml | 9.1 × 10^3 cfu/ml | <10 cfu/ml | 20 cfu/ml | <10 cfu/ml | <10 cfu/ml | <10 cfu/ml | <10 cfu/ml | reasonably effective | 1.5 × 10^7 cfu/ml | 5.2 × 10^5 cfu/ml | 7.8 × 10^6 cfu/ml | 2.6 × 10^4 cfu/ml | 1.0 × 10^5 cfu/ml | 1.6 × 10^4 cfu/ml | 1.0 × 10^4 cfu/ml | <10 | 30 cfu/ml | 
